Experimental data taken from patent US20210188813A1, “EZH2 INHIBITOR AND PHARMACEUTICALLY ACCEPTABLE SALTS AND POLYMORPHIC SUBSTANCES THEREOF, AND APPLICATION OF EZH2 INHIBITOR” (SHANGHAI HAIYAN PHARMACEUTICAL TECHNOLOGY CO., LTD., priority 2018, published 2021).

Columns and labels:
[1] = Solid state stability experiment; assay type: physicochemical
Source text: Detected changes in crystal form and purity at 4 and 7 days.

[2] = Dynamic solubility experiment; assay type: physicochemical; details: for Solubility: room temperature, 24 h
Source text: The free base samples and the two crystal forms were plotted separately in the experiment.

[3] = 60° C. and 40° C./75% RH, 4 and 7 days

CCc1c(C(=O)NCc2c(C)cc(C)[nH]c2=O)cc2c(cnn2C)c1N(CC)[C@H]1CC[C@H](N2CC(OC)C2)CC1.Cl [Crystal form A]
Content (%) ([1]; 4° C. 0 d): 96.62% | Properties ([1]; 4° C. 0 d): Dark yellow | RRT(%) 0.86 ([1]; 4° C. 0 d): 0.21% | RRT(%) 0.89 ([1]; 4° C. 0 d): 0.11% | RRT(%) 0.94 ([1]; 4° C. 0 d): 0.31% | RRT(%) 0.97 ([1]; 4° C. 0 d): 0.09% | RRT(%) 1.04 ([1]; 4° C. 0 d): 0.42% | RRT(%) 1.07 ([1]; 4° C. 0 d): 0.67% | RRT(%) 1.10 ([1]; 4° C. 0 d): 0.42% | RRT(%) 1.13 ([1]; 4° C. 0 d): 0.18% | RRT(%) 1.15 ([1]; 4° C. 0 d): 0.38% | RRT(%) 1.16 ([1]; 4° C. 0 d): 0.60% | Total impurities (%) ([1]; 4° C. 0 d): 3.38% | Content (%) ([1]; 40° C./75% RH 4 d): 96.34% | Properties ([1]; 40° C./75% RH 4 d): Dark yellow | RRT(%) 0.86 ([1]; 40° C./75% RH 4 d): 0.21% | RRT(%) 0.89 ([1]; 40° C./75% RH 4 d): 0.09% | RRT(%) 0.94 ([1]; 40° C./75% RH 4 d): 0.28% | RRT(%) 0.97 ([1]; 40° C./75% RH 4 d): 0.09% | RRT(%) 1.04 ([1]; 40° C./75% RH 4 d): 0.49% | RRT(%) 1.07 ([1]; 40° C./75% RH 4 d): 0.75% | RRT(%) 1.10 ([1]; 40° C./75% RH 4 d): 0.51% | RRT(%) 1.13 ([1]; 40° C./75% RH 4 d): 0.19% | RRT(%) 1.15 ([1]; 40° C./75% RH 4 d): 0.41% | RRT(%) 1.16 ([1]; 40° C./75% RH 4 d): 0.60% | RRT(%) 1.20 ([1]; 40° C./75% RH 4 d): 0.07% | Total impurities (%) ([1]; 40° C./75% RH 4 d): 3.66% | Content (%) ([1]; 40° C./75% RH 7 d): 96.60% | Properties ([1]; 40° C./75% RH 7 d): Dark yellow | RRT(%) 0.86 ([1]; 40° C./75% RH 7 d): 0.22% | RRT(%) 0.89 ([1]; 40° C./75% RH 7 d): 0.09% | RRT(%) 0.94 ([1]; 40° C./75% RH 7 d): 0.31% | RRT(%) 0.97 ([1]; 40° C./75% RH 7 d): 0.09% | RRT(%) 1.04 ([1]; 40° C./75% RH 7 d): 0.47% | RRT(%) 1.07 ([1]; 40° C./75% RH 7 d): 0.75% | RRT(%) 1.10 ([1]; 40° C./75% RH 7 d): 0.32% | RRT(%) 1.13 ([1]; 40° C./75% RH 7 d): 0.11% | RRT(%) 1.15 ([1]; 40° C./75% RH 7 d): 0.38% | RRT(%) 1.16 ([1]; 40° C./75% RH 7 d): 0.59% | Total impurities (%) ([1]; 40° C./75% RH 7 d): 3.40% | solid state stability ([1]; 40° C./75% RH, 4 and 7 days): stable | Content (%) ([1]; 60° C. 4 d): 85.19% | Properties ([1]; 60° C. 4 d): Dark yellow | RRT(%) 0.86 ([1]; 60° C. 4 d): 0.15% | RRT(%) 0.89 ([1]; 60° C. 4 d): 0.14% | RRT(%) 0.94 ([1]; 60° C. 4 d): 0.67% | RRT(%) 0.97 ([1]; 60° C. 4 d): 0.56% | RRT(%) 1.04 ([1]; 60° C. 4 d): 1.25% | RRT(%) 1.07 ([1]; 60° C. 4 d): 10.65% | RRT(%) 1.10 ([1]; 60° C. 4 d): 0.29% | RRT(%) 1.13 ([1]; 60° C. 4 d): 0.08% | RRT(%) 1.15 ([1]; 60° C. 4 d): 0.44% | RRT(%) 1.16 ([1]; 60° C. 4 d): 0.52% | RRT(%) 1.20 ([1]; 60° C. 4 d): 0.05% | Total impurities (%) ([1]; 60° C. 4 d): 14.81% | Content (%) ([1]; 60° C. 7 d): 75.90% | Properties ([1]; 60° C. 7 d): Dark yellow | RRT(%) 0.86 ([1]; 60° C. 7 d): 0.11% | RRT(%) 0.89 ([1]; 60° C. 7 d): 0.07% | RRT(%) 0.92 ([1]; 60° C. 7 d): 0.22% | RRT(%) 0.94 ([1]; 60° C. 7 d): 0.63% | RRT(%) 0.97 ([1]; 60° C. 7 d): 0.66% | RRT(%) 1.04 ([1]; 60° C. 7 d): 1.28% | RRT(%) 1.07 ([1]; 60° C. 7 d): 19.89% | RRT(%) 1.10 ([1]; 60° C. 7 d): 0.21% | RRT(%) 1.13 ([1]; 60° C. 7 d): 0.05% | RRT(%) 1.15 ([1]; 60° C. 7 d): 0.38% | RRT(%) 1.16 ([1]; 60° C. 7 d): 0.51% | RRT(%) 1.20 ([1]; 60° C. 7 d): 0.09% | Total impurities (%) ([1]; 60° C. 7 d): 24.10% | change in crystal form on storage [1, 3]: the crystal form has not changed | change of impurities ([1]; 60° C., 4 and 7 days): the impurities increase obviously | Phenomenon ([2]; 0.1M HCl): clear | Solubility ([2]; 0.1M HCl): ≥62.8 mg/mL | Phenomenon ([2]; H2O): clear | Solubility ([2]; H2O): ≥81.4 mg/mL | Phenomenon ([2]; pH 4.5 buffer): clear | Solubility ([2]; pH 4.5 buffer): ≥43.8 mg/mL | Phenomenon ([2]; pH 6.8 buffer): clear | Solubility ([2]; pH 6.8 buffer): ≥74.6 mg/mL

CCc1c(C(=O)NCc2c(C)cc(C)[nH]c2=O)cc2c(cnn2C)c1N(CC)[C@H]1CC[C@H](N2CC(OC)C2)CC1.O=C(O)/C=C\C(=O)O [Crystal form B]
Content (%) ([1]; 4° C. 0 d): 96.94% | Properties ([1]; 4° C. 0 d): Off-white | RRT(%) 0.86 ([1]; 4° C. 0 d): 0.19% | RRT(%) 0.89 ([1]; 4° C. 0 d): 0.09% | RRT(%) 0.92 ([1]; 4° C. 0 d): 0.05% | RRT(%) 0.94 ([1]; 4° C. 0 d): 0.17% | RRT(%) 1.04 ([1]; 4° C. 0 d): 0.51% | RRT(%) 1.07 ([1]; 4° C. 0 d): 0.43% | RRT(%) 1.10 ([1]; 4° C. 0 d): 0.38% | RRT(%) 1.13 ([1]; 4° C. 0 d): 0.21% | RRT(%) 1.15 ([1]; 4° C. 0 d): 0.40% | RRT(%) 1.16 ([1]; 4° C. 0 d): 0.64% | Total impurities (%) ([1]; 4° C. 0 d): 3.06% | Content (%) ([1]; 40° C./75% RH 4 d): 96.88% | Properties ([1]; 40° C./75% RH 4 d): Off-white | RRT(%) 0.86 ([1]; 40° C./75% RH 4 d): 0.20% | RRT(%) 0.89 ([1]; 40° C./75% RH 4 d): 0.08% | RRT(%) 0.92 ([1]; 40° C./75% RH 4 d): 0.05% | RRT(%) 0.94 ([1]; 40° C./75% RH 4 d): 0.16% | RRT(%) 1.04 ([1]; 40° C./75% RH 4 d): 0.45% | RRT(%) 1.07 ([1]; 40° C./75% RH 4 d): 0.40% | RRT(%) 1.10 ([1]; 40° C./75% RH 4 d): 0.47% | RRT(%) 1.13 ([1]; 40° C./75% RH 4 d): 0.20% | RRT(%) 1.15 ([1]; 40° C./75% RH 4 d): 0.41% | RRT(%) 1.16 ([1]; 40° C./75% RH 4 d): 0.63% | RRT(%) 1.20 ([1]; 40° C./75% RH 4 d): 0.07% | Total impurities (%) ([1]; 40° C./75% RH 4 d): 3.12% | Content (%) ([1]; 40° C./75% RH 7 d): 96.95% | Properties ([1]; 40° C./75% RH 7 d): Off-white | RRT(%) 0.86 ([1]; 40° C./75% RH 7 d): 0.25% | RRT(%) 0.89 ([1]; 40° C./75% RH 7 d): 0.07% | RRT(%) 0.92 ([1]; 40° C./75% RH 7 d): 0.05% | RRT(%) 0.94 ([1]; 40° C./75% RH 7 d): 0.16% | RRT(%) 1.04 ([1]; 40° C./75% RH 7 d): 0.45% | RRT(%) 1.07 ([1]; 40° C./75% RH 7 d): 0.41% | RRT(%) 1.10 ([1]; 40° C./75% RH 7 d): 0.44% | RRT(%) 1.13 ([1]; 40° C./75% RH 7 d): 0.20% | RRT(%) 1.15 ([1]; 40° C./75% RH 7 d): 0.41% | RRT(%) 1.16 ([1]; 40° C./75% RH 7 d): 0.63% | Total impurities (%) ([1]; 40° C./75% RH 7 d): 3.05% | Content (%) ([1]; 60° C. 4 d): 97.34% | Properties ([1]; 60° C. 4 d): Off-white | RRT(%) 0.86 ([1]; 60° C. 4 d): 0.14% | RRT(%) 0.89 ([1]; 60° C. 4 d): 0.06% | RRT(%) 0.94 ([1]; 60° C. 4 d): 0.26% | RRT(%) 1.04 ([1]; 60° C. 4 d): 0.36% | RRT(%) 1.07 ([1]; 60° C. 4 d): 0.43% | RRT(%) 1.10 ([1]; 60° C. 4 d): 0.32% | RRT(%) 1.13 ([1]; 60° C. 4 d): 0.13% | RRT(%) 1.15 ([1]; 60° C. 4 d): 0.39% | RRT(%) 1.16 ([1]; 60° C. 4 d): 0.59% | Total impurities (%) ([1]; 60° C. 4 d): 2.66% | Content (%) ([1]; 60° C. 7 d): 97.30% | Properties ([1]; 60° C. 7 d): Off-white | RRT(%) 0.86 ([1]; 60° C. 7 d): 0.16% | RRT(%) 0.89 ([1]; 60° C. 7 d): 0.05% | RRT(%) 0.94 ([1]; 60° C. 7 d): 0.29% | RRT(%) 1.04 ([1]; 60° C. 7 d): 0.35% | RRT(%) 1.07 ([1]; 60° C. 7 d): 0.44% | RRT(%) 1.10 ([1]; 60° C. 7 d): 0.29% | RRT(%) 1.13 ([1]; 60° C. 7 d): 0.13% | RRT(%) 1.15 ([1]; 60° C. 7 d): 0.40% | RRT(%) 1.16 ([1]; 60° C. 7 d): 0.60% | Total impurities (%) ([1]; 60° C. 7 d): 2.70% | change in crystal form on storage [1, 3]: the crystal form has not changed | solid state stability [1, 3]: good stability | Phenomenon ([2]; 0.1M HCl): clear | Solubility ([2]; 0.1M HCl): ≥30.4 mg/mL | Final pH ([2]; H2O): 5.06 | Phenomenon ([2]; H2O): turbid | Solubility ([2]; H2O): 3.13 mg/mL | Final pH ([2]; pH 4.5 buffer): 4.91 | Phenomenon ([2]; pH 4.5 buffer): clear | Solubility ([2]; pH 4.5 buffer): ≥3.07 mg/mL | Final pH ([2]; pH 6.8 buffer): 6.53 | Phenomenon ([2]; pH 6.8 buffer): clear | Solubility ([2]; pH 6.8 buffer): ≥3.72 mg/mL
